The target in series [1] is HIV protease (Human immunodeficiency virus type 1 group M subtype B, UniProt P04585). Description: Fluorogenic assay for screening inhibitors of HIV protease. Type of series: biochemical. Here is the method: Fluorogenic Assay for Screening Inhibitors of HIV Protease
The inhibitory potency of the compound of the invention can be determined by the following method.
The compound of the invention is dissolved in DMSO and a small aliquot further diluted with DMSO to 100 times the final concentration desired for testing. The reaction is carried out in a 6×50 mm tube in a total volume of 300 microliters. The final concentrations of the components in the reaction buffer are: 125 mM sodium acetate, 1 M sodium chloride, 5 mM dithiothreitol, 0.5 mg/ml bovine serum albumin, 1.3 μM fluorogenic substrate, 2% (v/v) dimethylsulfoxide, pH 4.5. After addition of inhibitor, the reaction mixture is placed in the fluorometer cell holder and incubated at 30° C. for several minutes. The reaction is initiated by the addition of a small aliquot of cold HIV protease. The fluorescence intensity (excitation 340 nm, emmision 490 nM) is recorded as a function of time. The reaction rate is determined for the first six to eight minutes. The observed rate is directly proportional to the moles of substrate cleaved-per unit time. The percent inhibition is 100×(1−(rate in presence of inhibitor)/(rate in absence of inhibitor)).
Fluorogenic substrate: Dabcyl-Gaba-Ser-Gln-Asn-Tyr-Pro-lle-Val-Gln-EDANS wherein DABCYL=4-(4-dimethylamino-phenyl)azobenzoic acid, Gaba=γ-aminobutyric acid, and EDANS=5-((2-aminoethyl)amino)-naphthalene-1-sulfonic acid.

Series [2] deals with uninfected MT4 cells. It counts as cell-based. To be noted: n=4 duplicate determinations, read-out: LC50 (the source's name). From the text: (§1) The anti-HIV activity of the compound of the invention can be determined in MT4 cells according to the following procedure. MT4 cells were infected with cell-free supernatant of HIVIIIB (previously frozen with known 50% tissue culture infectious dose (TCID50) at 0.003 multiplicity of infection (MOI) for one hour. After one hour infection, cells were washed twice to remove residual viruses, resuspended in culture media and seeded into 96-well tissue culture plates at 1×10^4 cells per well with various half-log dilutions of compounds. Uninfected cells are included as toxicity and cell controls. RPMI 1640 media (Gibco) with 10% fetal bovine serum were used as culture media. Various concentrations of human serum (Sigma) 50%, 25% and 12.5% were added to culture media resulting in final concentration of 60%, 35% and 22.5% total serum. All assay plates were incubated in 37 deg. cent. incubator for 5 days. MTT (sigma, 5 mg/ml stock in PBS) was added to all wells at 25 ul per well, incubate for 4 hours. 20% SDS with 0.02 N HCI in water was added at 50 ul per well to lyse cells. Plates incubated overnight for complete lyses were read on a microtitre plate reader at 570/650 nm wavelengths to determine cell optical density (O.D.). Raw data were analysed for percent inhibition by the following formula: O.D. test well−O.D. virus control×100 O.D. cell control−O.D. virus control The 50% effective concentration (EC50) was calculated by the median effect equation (Chou, 1975, Proc. Int. Cong. Pharmacol. 6th p. 619) to determine the efficacy of compound. The 50% lethal concentration (LC50) was calculated using uninfected MT4 cells.
(§2) Under these conditions, the following data were obtained (n=4 duplicate determinations: […]

In series [3] the test system is HIVIIIB. Description: Anti-HIV activity in MT4 cells infected with HIVIIIB (MTT readout). It counts as cell-based. As to conditions: 0% plasma, 5 days, n=4 duplicate determinations.
From the text: as §1, §2

The mark [4] stands for this setting: Inhibitor Concentration 0.5 nanomolar.

For `Cc1cccc(C)c1OCC(=O)N[C@@H](Cc1ccccc1)[C@@H](O)C[C@H](Cc1ccccc1)NC(=O)[C@H](C(C)C)N1C(=O)CCC1=O` [Example 18C, (2S,3S,5S)-2-(2,6-Dimethylphenoxyacetyl)amino-3-hydroxy-5-(2S-(1-pyrrolidin-2,5-dionyl)-3-methyl-butanoyl)amino-1,6-diphenylhexane], the “Percent Inhibition” value in series [1] (setting [4]) was determined as 57.8%. For the same compound, the CC50 in series [2] amounted to 19100 nM. Further, the 50% inhibitory concentration (IC50) (as a rule, the midpoint of a concentration-inhibition curve) in series [3] came to 0.329 µM.

With `Cc1cccc(C)c1OCC(=O)N[C@@H](Cc1ccccc1)[C@@H](O)C[C@H](NC(=O)[C@H](C(C)C)N1CCCNC1=O)C(C)C` [Example 27D, (2S,3S,5S)-2-(2,6-Dimethylphenoxyacetyl)amino-3-hydroxy-5-[2S-(1-tetrahydro-pyrimid-2-onyl)-3-methylbutanoyl]amino-1-phenyl-6-methylheptane], in series [1] (setting [4]), the “Percent Inhibition” value was determined as 92.9%. For the same compound, the CC50 in series [2] amounted to 56200 nM. The IC50 in series [3] was found to be 0.03 µM.

With `Cc1cccc(C)c1OCC(=O)N[C@@H](Cc1ccccc1)[C@@H](O)C[C@H](NC(=O)[C@H](C(C)C)N1CCC(=O)NC1=O)C(C)C` [Example 28, (2S,3S,5S)-2-(2,6-Dimethylphenoxyacetyl)amino-3-hydroxy-5-[2S-(1-tetrahydro-pyrimid-2,4-dionyl)-3-methylbutanoyl]amino-1-phenyl-6-methylheptane], the “Percent Inhibition” value in series [1] (setting [4]) was determined as 86.6%. For the same compound, the CC50 in series [2] is 72200 nM. Moreover, 0.011 µM corresponded to half-maximal inhibition in series [3] (IC50).

Take `CC(C)[C@@H](C(=O)N[C@@H](Cc1ccccc1)C[C@H](O)[C@H](Cc1ccccc1)NC(=O)O[C@H]1CO[C@H]2OCC[C@H]21)N1CCN(C)C1=O` [Example 4F, (2S,3S,5S)-2-[(3R, 3aS, 6aR)-Bis-tetrahydrofuranyloxy]amino-3-hydroxy-5-[2S-(3-methyl-1-imidazolidin-2-onyl)-3-methylbutanoyl]amino-1,6-diphenylhexane]: in series [1] (setting [4]), the “Percent Inhibition” value is listed as 49.7%. For the same compound, the CC50 in series [2] is greater than 100000 nM. Also, the 50% inhibitory concentration (IC50) in series [3] was 0.101 µM.

For the compound `Cc1cccc(C)c1OCC(=O)N[C@@H](Cc1ccccc1)[C@@H](O)C[C@H](Cc1ccccc1)NC(=O)[C@H](C(C)C)N1CCCNC1=O` [Example 2B, (2S,3S,5S)-2-(2,6-Dimethylphenoxyacetyl)amino-3-hydroxy-5-[2S-(1-tetrahydro-pyrimid-2-onyl)-3-methylbutanoyl]amino-1,6-diphenylhexane], in series [1] (setting [4]), the “Percent Inhibition” value is on record as 93.2%. Moreover, the CC50 in series [2] came to 17800 nM. In series [3], this compound registered a half-maximal inhibitory concentration (IC50) of 0.016 µM.

On to `Cc1ccnc(C)c1OCC(=O)N[C@@H](Cc1ccccc1)[C@@H](O)C[C@H](Cc1ccccc1)NC(=O)[C@H](C(C)C)N1CCNC1=O` [Example 15, (2S,3S,5S)-2-(2,4-Dimethyl-pyridin-3-oxy-acetyl)amino-3-hydroxy-5-(2S-(1-imidazolidin-2-onyl)-3-methyl-butanoyl)amino-1,6-diphenylhexane], for which the “Percent Inhibition” value in series [1] (setting [4]) was determined as 48%. The CC50 in series [2] was greater than 100000 nM. For the same compound, in series [3], the IC50 amounted to 0.119 µM.

With `Cc1cccc(C)c1CCC(=O)N[C@@H](Cc1ccccc1)[C@@H](O)C[C@H](Cc1ccccc1)NC(=O)[C@H](C(C)C)N1CCCNC1=O` [Example 20D, (2S,3S,5S)-2-(3-(2,6-Dimethylphenyl)propanoyl)amino-3-hydroxy-5-(2S-(1-tetrahydropyrimidin-2-onyl)-3-methyl-butanoyl)amino-1,6-diphenylhexane], in series [2], the CC50 is 24100 nM. In series [3], this compound showed an IC50 of 0.283 µM.

For `Cc1cccc(C)c1OCC(=O)N[C@@H](Cc1ccccc1)[C@@H](O)C[C@H](Cc1ccccc1)NC(=O)[C@H](C(C)C)N1CCC(=O)NC1=O` [Example 23C, (2S,3S,5S)-2-(2,6-Dimethylphenoxyacetyl)amino-3-hydroxy-5-(2S-(1-dihydropyrimid-2,4-dionyl)-3-methyl-butanoyl)amino-1,6-diphenylhexane], the “Percent Inhibition” value in series [1] (setting [4]) turned out to be 86.0%.

`Cc1ccnc(C)c1OCC(=O)N[C@@H](Cc1ccccc1)[C@@H](O)C[C@H](Cc1ccccc1)NC(=O)[C@@H](N1CCNC1=O)C(C)(C)C` [Example 14D, (2S,3S,5S)-2-(2,4-Dimethyl-pyridin-3-oxy-acetyl)amino-3-hydroxy-5-(2S-(1-imidazolidin-2-onyl)-3,3-dimethylbutanoyl)amino-1,6-diphenylhexane]: the “Percent Inhibition” value in series [1] (setting [4]) was found to be 52.7%. Besides, the CC50 in series [2] was greater than 100000 nM. This compound returned an IC50 in series [3] of 0.053 µM.

Consider `Cc1ncnc(C)c1OCC(=O)N[C@@H](Cc1ccccc1)[C@@H](O)C[C@H](Cc1ccccc1)NC(=O)[C@H](C(C)C)N1CCNC1=O` [Example 13B, (2S,3S,5S)-2-(4,6-Dimethylpyrimidin-5-oxy-acetyl)amino-3-hydroxy-5-(2S-(1-imidazolidin-2-onyl)-3-methyl-butanoyl)amino-1,6-diphenylhexane], for which the “Percent Inhibition” value in series [1] (Inhibitor Concentration 1.0 nanomolar) came out at 56.2%.

For the compound `Cc1cc(C)c(OCC(=O)N[C@@H](Cc2ccccc2)[C@@H](O)C[C@H](Cc2ccccc2)NC(=O)[C@H](C(C)C)N2CCNC2=O)c(C)c1` [Example 11B, (2S,3S,5S)-2-(2,4,6-Trimethylphenoxyacetyl)amino-3-hydroxy-5-(2S-(1-imidazolidin-2-onyl)-3-methylbutanoyl)amino-1,6-diphenylhexane], the “Percent Inhibition” value in series [1] (setting [4]) is on record as 91.1%. In addition, the CC50 in series [2] was 18200 nM. In series [3], this compound displayed a 50% inhibitory concentration (IC50) of 0.19 µM.

As for `Cc1cccc(C)c1OCC(=O)N[C@@H](Cc1ccccc1)[C@@H](O)C[C@H](Cc1ccccc1)NC(=O)[C@H](C(C)C)N1CCOC1=O` [Example 3C, (2S,3S,5S)-2-(2,6-Dimethylphenoxyacetyl)amino-3-hydroxy-5-[2S-(3-oxazolidin-2-onyl)-3-methyl-butanoyl]amino-1,6-diphenylhexane], the “Percent Inhibition” value in series [1] (setting [4]) was 86.9%. Also, in series [2], the CC50 stood at 49500 nM. In series [3], this compound registered an IC50 of 0.025 µM.

For `Cc1cccc(C)c1OCC(=O)N[C@@H](Cc1ccccc1)[C@@H](O)C[C@H](Cc1ccccc1)NC(=O)[C@@H](N1CCNC1=O)C(C)(C)C` [Example 8, (2S,3S,5S)-2-(2,6-Dimethylphenoxyacetyl)amino-3-hydroxy-5-(2S-(1-imidazolidin-2-onyl)-3,3-dimethylbutanoyl)amino-1,6-diphenylhexane], in series [1] (setting [4]), the “Percent Inhibition” value is 55.6%. Also, the CC50 in series [2] worked out at 17800 nM. The compound also showed a concentration for half-maximal inhibition (IC50) in series [3] of 0.019 µM.

Turning to `Cc1cccc(C)c1OCC(=O)N[C@@H](Cc1ccccc1)[C@@H](O)C[C@H](Cc1ccccc1)NC(=O)[C@H](C(C)C)N1CCCC1=O` [Example 17C, (2S,3S,5S)-2-(2,6-Dimethylphenoxyacetyl)amino-3-hydroxy-5-(2S-(1-pyrrolidin-2-onyl)-3-methyl-butanoyl)amino-1,6-diphenylhexane], the “Percent Inhibition” value in series [1] (setting [4]) is on record as 87.2%. In series [2], the CC50 turned out to be 19000 nM. The compound also came in with a half-inhibitory concentration (IC50) in series [3] of 0.051 µM.

As to `Cc1cccc(C)c1OCC(=O)N[C@@H](Cc1ccccc1)[C@@H](O)C[C@H](Cc1ccccc1)NC(=O)[C@H](C(C)C)N1CCC(=O)NC1=O` [Example 25E, (2S,3S,5S)-2-(2,6-Dimethylphenoxyacetyl)amino-3-hydroxy-5-[2S-(1-tetrahydro-pyrimid-2,4-dionyl)-3-methylbutanoyl]amino-1,6-diphenylhexane], the “Percent Inhibition” value in series [1] (setting [4]) is 100%. In series [2], the CC50 was 22900 nM. This compound also had a concentration for half-maximal inhibition (IC50) in series [3] of 0.012 µM.

Turning to `CC(C)[C@@H](C(=O)N[C@@H](Cc1ccccc1)C[C@H](O)[C@H](Cc1ccccc1)NC(=O)O[C@@H]1CCS(=O)(=O)[C@@H]1C(C)C)N1CCCNC1=O` (racemic) [Example 22E, (2S,3S,5S)-2-(cis(±)-1,1-Dioxo-2-isopropyl-3-tetrahydrothiophenoxy)amino-3-hydroxy-5-(2S-(1-tetrahydropyrimid-2-onyl)-3-methylbutanoyl)amino-1,6-diphenylhexane], in series [1] (setting [4]), the “Percent Inhibition” value is given as 71.8%.

These data come from patent US7279582B2, “Retroviral protease inhibiting compounds” (priority 1995, dated 2007).
